Data as given in the NIST ThermoML archive (doi:10.1021/acs.jced.5b00545).

Conditions: Liquid; for mass density / kinematic viscosity: 101.33 kPa; for mass density: Pycnometric method; for kinematic viscosity: Capillary tube (Ostwald / Ubbelohde) method; for vapor or sublimation pressure: Closed cell (Static) method

CCCCCC[C@@H](O)CC=CCCCCCCCC(=O)OC [[R]-methyl 12-hydroxy-9-octadecenoate]
Conditions | kinematic viscosity [m2/s] | mass density [kg/m3] | vapor or sublimation pressure [kPa]
293.16 K | – | 928.5 | –
298.23 K | 2.95e-05 | – | –
303.13 K | 2.35e-05 | – | –
303.17 K | – | 921.2 | –
308.25 K | 1.81e-05 | – | –
313.15 K | 1.49e-05 | – | –
313.33 K | – | 916.7 | –
318.38 K | 1.2e-05 | – | –
323.05 K | – | 910.3 | –
323.08 K | 1.01e-05 | – | –
328.12 K | 8.52e-06 | – | –
333.15 K | 7.25e-06 | – | –
333.25 K | – | 904 | –
338.05 K | 6.26e-06 | – | –
343.1 K | 5.43e-06 | – | –
343.32 K | – | 895.8 | –
348.06 K | 4.76e-06 | – | –
353.06 K | – | 883.3 | –
353.11 K | 4.2e-06 | – | –
358.15 K | 3.73e-06 | – | –
363.38 K | – | 875 | –
373.26 K | – | 865.8 | –
383.23 K | – | 857.5 | –
451.58 K | – | – | 0.232
454.7 K | – | – | 0.276
457.23 K | – | – | 0.319
459.5 K | – | – | 0.361
461.85 K | – | – | 0.41
463.55 K | – | – | 0.449
465.2 K | – | – | 0.49
466.83 K | – | – | 0.533
469.55 K | – | – | 0.61
470.4 K | – | – | 0.637
471.25 K | – | – | 0.665
472.3 K | – | – | 0.7
473.15 K | – | – | 0.73
474.9 K | – | – | 0.794
476.8 K | – | – | 0.868

CCCCCCCCCCCCCCCC(=O)OC [methyl hexadecanoate]
Conditions | vapor or sublimation pressure [kPa]
407.12 K | 0.13
414.26 K | 0.21
418.18 K | 0.24
422.34 K | 0.27
424.68 K | 0.305
427.54 K | 0.365
429.32 K | 0.415
432.32 K | 0.42
434.18 K | 0.515
437.3 K | 0.545
438.44 K | 0.56
439.6 K | 0.65
441 K | 0.66
445.36 K | 0.84
447.06 K | 0.85
